Results taken from US20240262815A1, “HETEROARYL DERIVATIVE, METHOD FOR PREPARING SAME, AND PHARMACEUTICAL COMPOSITION COMPRISING SAME AS ACTIVE INGREDIENT” (VORONOI INC., priority 2021, published 2024).

Tested on: SK-BR-3 cancer cells
Experiment: Inhibitory activity against proliferation of SK-BR-3 cancer cells (CellTiter-Glo)
Format: cell-based
Details: Homo sapiens, SK-BR-3, 120 h, ErbB2-overexpressing SK-BR-3 cells, 120 hours after treatment
Experimental: To evaluate the inhibitory activity of a compound according to the present invention against the proliferation of ErbB2-overexpressing cancer cells, the following experiment were performed.
10% FBS-added McCOY'S 5A was used for SK-BR-3 cancer cells. 20% FBS-added RPMI-1640 was used for BT-474 cancer cells. Transduced Ba/F3 cells were cultured in a RPMI-1640 medium to which 1 μg/ml puromycin (Invitrogen) was added.
48 hours before compound treatment, each type of the SK-BR-3 and BT-474 cells were seeded at 5,000 cells/well in a white clear bottom 96 well plate (Corning). The compound was diluted in dimethyl sulfoxide (SK-BR-3: 3-fold dilution, a total of 12 concentrations, BT-474: […], a total of 12 concentrations) and injected at 1 μl to have the final concentration of 0.2 nM to 5 μM. As for measurement of live cells, 120 hours after treatment with the compound, a CellTiter-Glo luminescent cell-viability reagent (Promega) was used to store the cells at room temperature for 10 minutes, followed by measurement of luminescence using a reader (SynergyNeo, Biotek). Each test was repeated three times.
The result values were calculated as a cell growth rate (%) compared to the control group. A graph was plotted using the GraphPad Prism version 8.3.0 program, and GI50 values were calculated.

Row | Compound | GI50 [nM]
1 | C=CC(=O)Nc1cc(Nc2cc(N3OCC[C@@H]3c3cc(F)cc(-c4ccco4)c3)ncn2)c(OC)cc1N1CCN(C)CC1 [Example compound 133, (R)-N-(5-((6-(3-(3-fluoro-5-(furan-2-yl)phenyl)isoxazolidin-2-yl)pyrimidin-4-yl)amino)-4-methoxy-2-(4-methylpiperazin-1-yl)phenyl)acrylamide] | < 50
2 | C=CC(=O)Nc1cc(Nc2cc(N3OCC[C@@H]3c3cc(F)cc(-c4cccc(F)c4)c3)ncn2)c(OC)cc1N1CCC(N2CCOCC2)CC1 [Example 207, (R)-N-(5-((6-(3-(3′,5-difluoro-[1,1′-biphenyl]-3-yl)isoxazolidin-2-yl)pyrimidin-4-yl)-amino)-4-methoxy-2-(4-morpholino-piperidin-1-yl)-phenyl)acrylamide] | < 50
3 | C=CC(=O)Nc1cc(Nc2cc(N3OCC[C@@H]3c3cc(F)cc(OCc4ccccn4)c3)ncn2)c(OC)cc1N(C)CCN(C)C [Example 196, (R)-N-(2-((2-(dimethylamino)-ethyl)(methyl)-amino)-5-((6-(3-(3-fluoro-5-(pyr-idin-2-ylmethoxy)-phenyl)isoxazol-idin-2-yl)pyrim-idin-4-yl)amino)-4-methoxyphen-yl)acrylamide] | < 50
4 | C=CC(=O)Nc1cc(Nc2cc(N3OCC[C@@H]3c3cccc(-c4ccccc4)c3)ncn2)c(OC)cc1N1CCC(N2CCN(C3CC3)CC2)CC1 [Example 190, (R)-N-(5-((6-(3-([1,1′-biphenyl]-3-yl)isoxazolidin-2-yl)pyrimidin-4-yl)-amino)-2-(4-(4-cyclopropylpiper-azin-1-yl)piper-idin-1-yl)-4-meth-oxyphenyl)acryl-amide] | < 50
5 | C=CC(=O)Nc1cc(Nc2cc(N3OCCC3c3cccc(-c4cccc(F)c4)c3)ncn2)c(OC)cc1N1CCN(C)CC1 (centres unmarked) [Example 211, N-(5-((6-(3-(3′-fluoro-[1,1′-biphenyl]-3-yl)-isoxazolidin-2-yl)-pyrimidin-4-yl)-amino)-4-methoxy-2-(4-methylpiper-azin-1-yl)phenyl)-acrylamide] | 50 to 500
6 | C=CC(=O)Nc1cc(Nc2cc(N3OCCC3c3cccc(-c4cccn5ccnc45)c3)ncn2)c(OC)cc1N(C)CCN(C)C (centres unmarked) [Example 204, N-(2-((2-(dimeth-ylamino)ethyl)-(methyl)amino)-5-((6-(3-(3-(imidazo-[1,2-a]pyridin-8-yl)phenyl)isoxazol-idin-2-yl)pyrim-idin-4-yl)amino)-4-methoxyphen-yl)acrylamide] | < 50
7 | C=CC(=O)Nc1cc(Nc2cc(N3OCC[C@@H]3c3cc(F)cc(-c4cccc(N(C)C)c4)c3)ncn2)c(OC)cc1N(C)CCN(C)C [Example 239] | < 50
8 | C=CC(=O)Nc1cc(Nc2cc(N3OCC[C@@H]3c3cccc(OCc4cccc(C)n4)c3)ncn2)c(OC)cc1N1CCN(C)CC1 [Example compound 99, (R)-N-(4-methoxy-2-(4-methylpiperazin-1-yl)-5-((6-(3-(3-((6-methylpyridin-2-yl)methoxy)phenyl)isoxazolidin-2-yl)pyrimidin-4-yl)amino)phenyl)acrylamide] | 50 to 500
9 | C=CC(=O)Nc1cc(Nc2cc(N3OCC[C@@H]3c3cccc(Oc4cc(F)ccc4F)c3)ncn2)c(OC)cc1N1CCN(C)CC1 [Example compound 103, (R)-N-(5-((6-(3-(3-(2,5-difluorophenoxy)phenyl)isoxazolidin-2-yl)pyrimidin-4-yl)amino)-4-methoxy-2-(4-methylpiperazin-1-yl)phenyl)acrylamide] | 50 to 500
10 | C=CC(=O)Nc1cc(Nc2cc(N3OCC[C@@H]3c3cc(F)cc(-c4cccc5ncnn45)c3)ncn2)c(OC)cc1N1CCN(C)CC1 [Example 209, (R)-N-(5-((6-(3-(3-([1,2,4]triazolo-[1,5-a]pyridin-5-yl)-5-fluorophen-yl)isoxazolidin-2-yl)pyrimidin-4-yl)-amino)-4-methoxy-2-(4-methylpiper-azin-1-yl)phenyl)-acrylamide] | < 50
11 | C=CC(=O)Nc1cc(Nc2cc(N3OCC[C@@H]3c3cccc(C#CC(C)(C)C)c3)ncn2)c(OC)cc1N1CCN(C)CC1 [Example 311, (R)-N-(5-((6-(3-(3-(3,3-dimethyl-but-1-yn-1-yl)phen-yl)isoxazolidin-2-yl)pyrimidin-4-yl)-amino)-4-methoxy-2-(4-methylpiper-azin-1-yl)phenyl)-acrylamide] | 50 to 500
12 | C=CC(=O)Nc1cc(Nc2cc(N3OCC[C@@H]3c3cccc(-c4cnc5ccnn5c4)c3)ncn2)c(OC)cc1N1CCN(C)CC1 [Example 262, (R)-N-(4-methoxy-2-(4-methylpiper-azin-1-yl)-5-((6-(3-(3-(pyrazolo[1,5-a]pyrimidin-6-yl)-phenyl)isoxazol-idin-2-yl)pyrim-idin-4-yl)amino)-phenyl)acrylamide] | < 50
13 | C=CC(=O)Nc1cc(Nc2cc(N3OCC[C@@H]3c3ccc(C)c(OCc4cccc(F)c4)c3)ncn2)c(OC)cc1N1CCN(C)CC1 [Example 256, (R)-N-(5-((6-(3-(3-((3-fluorobenz-yl)oxy)-4-methyl-phenyl)isoxazol-idin-2-yl)pyrim-idin-4-yl)amino)-4-methoxy-2-(4-methylpiperazin-1-yl)phenyl)-acrylamide] | 50 to 500
14 | C=CC(=O)Nc1cc(Nc2cc(N3OCC[C@H]3c3cccc(-c4cccc(F)c4)c3)ncn2)c(OC)cc1N1CCN(C)CC1 [Example 241, (S)-N-(5-((6-(3-(3′-fluoro-[1,1′-biphenyl]-3-yl)-isoxazolidin-2-yl)-pyrimidin-4-yl)-amino)-4-methoxy-2-(4-methylpiper-azin-1-yl)phenyl)-acrylamide] | 500 to 5000
15 | C=CC(=O)Nc1cc(Nc2cc(N3OCC[C@@H]3c3ccc(F)c(Oc4cccc(C(F)(F)F)c4)c3)ncn2)c(OC)cc1N(C)CCN(C)C [Example 260, (R)-N-(2-((2-(dimethylamino)-ethyl)(methyl)-amino)-5-((6-(3-(4-fluoro-3-(3-(trifluoromethyl)-phenoxy)phenyl)-isoxazolidin-2-yl)-pyrimidin-4-yl)-amino)-4-methoxy-phenyl)acrylamide] | 50 to 500
16 | C=CC(=O)Nc1cc(Nc2cc(N3OCCC3c3cc(F)cc(OCc4nccs4)c3)ncn2)c(OC)cc1N1CCN(C)CC1 (centres unmarked) [Example compound 132, N-(5-((6-(3-(3-fluoro-5-(thiazol-2-ylmethoxy)phenyl)isoxazolidin-2-yl)pyrimidin-4-yl)amino)-4-methoxy-2-(4-methylpiperazin-1-yl)phenyl)acrylamide] | < 50
17 | C=CC(=O)Nc1cc(Nc2cc(N3OCCC3c3cccc(-c4cccc(F)c4)c3)ncn2)c(OC)cc1N(C)CCN(C)C (centres unmarked) [Example 261, N-(2-((2-(dimeth-ylamino)ethyl)-(methyl)amino)-5-((6-(3-(3′-fluoro-[1,1′-biphenyl]-3-yl)isoxazolidin-2-yl)pyrimidin-4-yl)-amino)-4-methoxy-phenyl)acrylamide] | < 50
18 | C=CC(=O)Nc1cc(Nc2cc(N3OCC[C@@H]3c3cccc(-c4cc(F)cc(F)c4)c3)ncn2)c(OC)cc1N1CCC(N2CCOCC2)CC1 [Example 272, (R)-N-(5-((6-(3-(3′,5′-difluoro-[1,1′-biphenyl]-3-yl)-isoxazolidin-2-yl)-pyrimidin-4-yl)-amino)-4-methoxy-2-(4-morpholino-piperidin-1-yl)-phenyl)acrylamide] | < 50
19 | COc1cc(F)c(NC(=O)/C=C/CN(C)C)cc1Nc1cc(N2OCC[C@@H]2c2ccc(F)c(OCc3cccc(F)c3)c2)ncn1 [Example 255, (R,E)-4-(dimethyl-amino)-N-(2-fluoro-5-((6-(3-(4-fluoro-3-((3-fluorobenzyl)oxy)-phenyl)isoxazol-idin-2-yl)pyrim-idin-4-yl)amino)-4-methoxyphen-yl)but-2-enamide] | 50 to 500
20 | C=CC(=O)Nc1cc(Nc2cc(N3OCC[C@@H]3c3cccc(C(=O)NC4CCCCC4)c3)ncn2)c(OC)cc1N1CCC(N2CCN(C3CC3)CC2)CC1 [Example 254, (R)-3-(2-(6-((5-acrylamido-4-(4-(4-cyclopropyl-piperazin-1-yl)-piperidin-1-yl)-2-methoxyphenyl)-amino)pyrimidin-4-yl)isoxazolidin-3-yl)-N-cyclohex-ylbenzamide] | < 50
21 | C=CC(=O)Nc1cc(Nc2cc(N3OCCC3c3ccc(Cl)c(OCc4cccc(F)c4)c3)ncn2)c(OC)cc1N1CCN(C)CC1 (centres unmarked) [Example compound 115, N-(5-((6-(3-(4-chloro-3-((3-fluorobenzyl)oxy)phenyl)isoxazolidin-2-yl)pyrimidin-4-yl)amino)-4-methoxy-2-(4-methylpiperazin-1-yl)phenyl)acrylamide] | 50 to 500
22 | C=CC(=O)Nc1cc(Nc2cc(N3OCC[C@@H]3c3cccc(-c4cccc(F)c4)c3)ncn2)c(OC)cc1N1CCNC2(CC2)C1 [Example 291, (R)-N-(5-((6-(3-(3′-fluoro-[1,1′-biphenyl]-3-yl)-isoxazolidin-2-yl)-pyrimidin-4-yl)-amino)-4-methoxy-2-(4,7-diazaspiro-[2.5]octan-7-yl)-phenyl)acrylamide] | < 50
23 | C=CC(=O)Nc1cc(Nc2cc(N3OCC[C@@H]3c3cccc(C(=O)OC4CCCCC4)c3)ncn2)c(OC)cc1N1CCC(N2CCN(C3CC3)CC2)CC1 [Example 185, cyclohexyl (R)-3-(2-(6-((5-acryl-amido-4-(4-(4-cyclopropylpiper-azin-1-yl)piper-idin-1-yl)-2-meth-oxyphenyl)amino)-pyrimidin-4-yl)-isoxazolidin-3-yl)-benzoate] | 50 to 500
